# Data as given in patent US20250208141A1, “FLUORESCENT PROBE FOR LABELING M1 MACROPHAGES, AND M1 MACROPHAGE MONITORING SYSTEM USING SAME” (INSTITUTE FOR BASIC SCIENCE, priority 2022, published 2025).
# Key:
# [1] = system: THP-1 M0, M1, M2 macrophages; assay: M1 macrophage selectivity by comparison with 2-NBDG in THP-1 macrophages; assay type: cell-based, human
# Source text: In order to compare the selectivity of CDr17 for M1 macrophages, 2-NBDG which is a generally used fluorescent probe was applied to THP-1 which is a macrophage cell line of human origin and tested.
# [2] = system: GLUT; assay: GLUT inhibition test (CDr17 absorption) with cytochalasin B19; assay type: cell-based, mouse; settings: inhibitor 0, 0.03, 0.1, 0.3 μM, 30 minutes, M1 macrophage
# Protocol: Next, a GLUT inhibition test was performed using cytochalasin B19 which is a general GLUT inhibitor. An inhibitor at various concentrations (0, 0.03, 0.1, 0.3 μM) was cultured for 30 minutes with the M1 macrophage, cells were treated with CDr17, and the fluorescence intensity was analyzed (FIG. 3).
# [3] = molecular target: T1, GLUT1 (Mus musculus, UniProt P17809); assay: GLUT1 blocking with STF-31, then CDr17 fluorescence in M1 macrophages; assay type: cell-based; settings: M1 macrophage of RAW264.7; 1 μM CDr17 for 30 minutes
# T1 construct: endogenous in cells; host or cells: M1 macrophages of RAW264.7 cells
# T1 sequence (P17809 1-492): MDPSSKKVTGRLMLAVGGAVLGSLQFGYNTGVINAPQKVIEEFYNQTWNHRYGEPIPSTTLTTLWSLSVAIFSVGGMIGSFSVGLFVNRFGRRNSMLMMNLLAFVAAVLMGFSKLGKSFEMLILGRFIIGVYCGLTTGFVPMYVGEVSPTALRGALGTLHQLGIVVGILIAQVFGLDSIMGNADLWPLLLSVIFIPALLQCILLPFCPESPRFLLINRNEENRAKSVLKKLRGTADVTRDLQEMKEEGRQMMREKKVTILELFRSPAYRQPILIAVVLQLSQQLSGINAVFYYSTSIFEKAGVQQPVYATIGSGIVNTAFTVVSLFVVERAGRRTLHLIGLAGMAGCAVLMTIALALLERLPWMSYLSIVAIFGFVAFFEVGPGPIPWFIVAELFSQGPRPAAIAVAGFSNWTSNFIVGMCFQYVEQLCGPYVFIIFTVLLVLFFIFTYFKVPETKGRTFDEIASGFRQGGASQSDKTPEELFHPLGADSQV
# Protocol: Next, the function of GLUT1 was blocked using STF-3121 which is a selective inhibitor of GLUT1 in the M1 macrophage of RAW264.7, and then a treatment was performed with 1 μM CDr17 for 30 minutes to monitor the inhibition effect.
# [4] = system: GLUTs; assay: Glucose (D/L-glucose) competition test with CDr17 in M1 macrophages; assay type: cell-based, mouse; settings: D/L-glucose 0, 20, 60 mM; CDr17 1 μM; M1 macrophages from RAW264.7
# Protocol: In order to analyze a mechanism for selectivity of the compounds (probes) according to the examples, test was performed as follows, using the CDr17 compound of Example 8. First, in order to analyze whether the selectivity of CDr17 is related to GLUTs in cells, a glucose competition test was performed by the following method. As an M1 macrophage medium having no glucose differentiated in RAW264.7 cells, a medium comprising 10% Heat-Inactivated Fetal Bovine Serum (Gibco) and 1% penicillin streptomycin (WELGENE) comprising D/L-glucose at various concentrations (0 (Cont.), 20, 60 mM) were cultured for 5 minutes, and CDr17 (1 μM) was added. The nucleus was stained with Hoechst33342 (1 μg/mL), and the medium was replaced with a fresh medium after 30 minutes. Fluorescence microscopic imaging was performed with Operetta High Throughput screening with a 40× objective lens.
molecule,measurement,setting,value
"O=[N+]([O-])c1ccc(N[C@H]2C(O)O[C@H](CO)[C@@H](O)[C@@H]2O)c2nonc12 (stereo partly drawn) [Example 2-NBDG, 2-NBDG]",ability to distinguish M1 macrophage from M0 and M2 by fluorescence intensity,"[1]; THP-1, CDr17 0.5 μM, 2-NBDG 1, 5, 10, 50, 100 μM",M1 and M2 macrophages were not able to be clearly distinguished at any concentration
same,concentration needed for observation of fluorescence intensity,[1]; THP-1 macrophages,100 µM
cytochalasin B19,effect on absorption of CDr17 through GLUT,[2],blocked dose-dependently absorption of CDr17 through GLUT
CC(C)(C)c1ccc(S(=O)(=O)NCc2ccc(C(=O)Nc3cccnc3)cc2)cc1 [STF-31],entry of CDr17 into M1 cells,[3],significantly decreased dependently on the dose
O=C[C@H](O)[C@@H](O)[C@H](O)[C@H](O)CO [D-glucose],effect on CDr17 fluorescence intensity / absorption by the M1 macrophage,[4],decreased dose-dependently
O=C[C@@H](O)[C@H](O)[C@@H](O)[C@@H](O)CO [L-glucose],effect on CDr17 fluorescence intensity / absorption by the M1 macrophage,[4],did not affect absorption of CDr17
